Patent US20250382344A1, “Soluble GLP1/GIP/NPY2 Receptor Triple Agonists” (Boehringer Ingelheim International GmH, priority 2024, published 2025)
pEC50: −log10 of the molar value. Where two headings read alike, the source gives them in different places.

Tests used:
hGIPR = biological target: T1, hGIPR (Homo sapiens, UniProt P48546); experiment: hGIPR CreLuc assay in 0.5% and 100% plasma (CHO CRE-luciferase reporter cells); type: cell-based
T1 construct: expressed in transfected cells; host or cells: CHO CRE-luciferase reporter cells
T1 sequence (P48546 22-466): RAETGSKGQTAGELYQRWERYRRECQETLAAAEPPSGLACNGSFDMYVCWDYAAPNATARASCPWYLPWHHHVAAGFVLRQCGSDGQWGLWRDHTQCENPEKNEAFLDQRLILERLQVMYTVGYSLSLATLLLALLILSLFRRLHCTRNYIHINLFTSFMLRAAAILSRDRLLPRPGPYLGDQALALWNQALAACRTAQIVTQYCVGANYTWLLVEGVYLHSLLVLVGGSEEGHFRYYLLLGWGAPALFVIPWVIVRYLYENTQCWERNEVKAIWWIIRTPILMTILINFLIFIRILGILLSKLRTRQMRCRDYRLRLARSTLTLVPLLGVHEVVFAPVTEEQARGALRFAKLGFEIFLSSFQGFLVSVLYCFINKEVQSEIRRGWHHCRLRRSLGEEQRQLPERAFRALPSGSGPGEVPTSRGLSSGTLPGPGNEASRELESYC

[1] = Solubility in 0.1 M phosphate buffer at pH 7; type: physicochemical; conditions: 0.1 M phosphate buffer at pH 7, 10 mg/mL final peptide concentration, shaking 2 hours at room temperature, peptides as TFA-salts; measured sample pH 6.5-7.0

pEC50 (hGIPR; 0.5% human plasma, read-out: hGIPR 0.5% hP)	Structure (SMILES)	EC50 (hGIPR; hGIPR 0.5% hP (nM), 0.5% human plasma) [nM]	EC50 (hGIPR; hGIPR 100% hP (nM), 100% human plasma) [nM]	solubility at 2 h [1] [µg/mL]
–	CC[C@H](C)[C@H](NC(=O)[C@H](CC(C)C)NC(=O)[C@H](Cc1c[nH]cn1)NC(=O)[C@H](CCCNC(=N)N)NC(=O)[C@@H](NC(=O)[C@H](Cc1ccccc1)NC(=O)[C@H](C)NC(=O)C(C)(C)NC(=O)[C@H](CCC(N)=O)NC(=O)[C@H](C)NC(=O)[C@H](CCC(N)=O)NC(=O)[C@H](CCCCN)NC(=O)[C@H](CCC(=O)O)NC(=O)[C@H](CC(C)C)NC(=O)C(C)(C)NC(=O)[C@@H](NC(=O)[C@H](CO)NC(=O)[C@H](CC(C)C)NC(=O)[C@H](CC(=O)O)NC(=O)[C@H](CO)NC(=O)[C@@H](NC(=O)[C@H](Cc1ccccc1)NC(=O)[C@@H](NC(=O)CNC(=O)[C@H](CCC(=O)O)NC(=O)C(C)(C)NC(=O)[C@@H](N)Cc1ccc(O)cc1)[C@@H](C)O)[C@@H](C)O)[C@@H](C)CC)C(C)C)C(=O)N[C@@H](CC(N)=O)C(=O)N[C@@H](CCCCNC(=O)CCCCCNC(=O)CCCCCNC(=O)CC[C@H](NC(=O)CC[C@H](NC(=O)CC[C@H](NC(=O)CC[C@H](NC(=O)CC[C@H](NC(=O)CCCCCCCCCCCCCCCCCCC(=O)O)C(=O)O)C(=O)O)C(=O)O)C(=O)O)C(=O)O)C(=O)NC(C)(C)C(=O)N[C@H](C(=O)N[C@@H](CCCNC(=N)N)C(=O)N[C@@H](CCC(N)=O)C(=O)N[C@@H](CCCNC(=N)N)C(=O)N[C@@H](Cc1ccc(O)cc1)C(N)=O)[C@@H](C)O [Compound 1, Y-Aib-E-G-T-F-T-S-D-L-S-I-Aib-L-E-K-Q-A-Q-Aib-A-F-V-R-H-L-I-N-K(1,3)-Aib-T-R-Q-R-Y-NH2.C20DA-gGlu-gGlu-gGlu-gGlu-gGlu-AHX-AHX(1,2)]	0.2	10.3	9800
9.22	CC[C@H](C)[C@H](NC(=O)[C@H](CC(C)C)NC(=O)[C@H](Cc1c[nH]cn1)NC(=O)[C@H](CCCNC(=N)N)NC(=O)[C@@H](NC(=O)[C@H](Cc1ccccc1)NC(=O)[C@H](C)NC(=O)C(C)(C)NC(=O)[C@H](CCC(N)=O)NC(=O)[C@H](C)NC(=O)[C@H](CCC(N)=O)NC(=O)[C@H](CCCCN)NC(=O)[C@H](CCC(=O)O)NC(=O)[C@H](CC(C)C)NC(=O)C(C)(C)NC(=O)[C@@H](NC(=O)[C@H](CO)NC(=O)[C@H](Cc1ccc(O)cc1)NC(=O)[C@H](CC(=O)O)NC(=O)[C@H](CO)NC(=O)[C@@H](NC(=O)[C@H](Cc1ccccc1)NC(=O)[C@@H](NC(=O)CNC(=O)[C@H](CCC(=O)O)NC(=O)C(C)(C)NC(=O)[C@@H](N)Cc1ccc(O)cc1)[C@@H](C)O)[C@@H](C)O)[C@@H](C)CC)C(C)C)C(=O)N[C@@H](CC(N)=O)C(=O)N[C@@H](CCCCNC(=O)[C@@H](N)CCCCNC(=O)CC[C@H](NC(=O)CC[C@H](NC(=O)CC[C@H](NC(=O)CC[C@H](NC(=O)CC[C@H](NC(=O)CC[C@H](NC(=O)CCCCCCCCCCCCCCCCCCC(=O)O)C(=O)O)C(=O)O)C(=O)O)C(=O)O)C(=O)O)C(=O)O)C(=O)N[C@@H](CC(C)C)C(=O)N[C@H](C(=O)N[C@@H](CCCNC(=N)N)C(=O)N[C@@H](CCC(N)=O)C(=O)N[C@@H](CCCNC(=N)N)C(=O)N[C@@H](Cc1ccc(O)cc1)C(N)=O)[C@@H](C)O [Compound 27, Y-Aib-E-G-T-F-T-S-D-Y-S-I-Aib-L-E-K-Q-A-Q-Aib-A-F-V-R-H-L-I-N-K(1,3)-L-T-R-Q-R-Y-NH2.C20DA-gGlu-gGlu-gGlu-gGlu-gGlu-gGlu-eLys(1,2)]	–	–	10000
